Several values for one entry are separate records, joined by “and”; a condition that tells them apart may be missing. Equal entries are not always repeated. Where two headings read alike, the source gives them in different places.
Assay: Pharmacokinetic study of I-11 in female BALB/c mice (Example 4)
Assay type: in vivo, Balb/c mouse
Protocol: Pharmacokinetic Study in Female BALB/c Mice: Balb/c mouse, 17-19 g, 8-10 weeks, female, N=27, purchased from JH Laboratory Animal Co. LTD
Fasted overnight and fed at 4 hr post dosing.
Animals dosed with sampling at 0.083, 0.25, 0.5, 1, 2, 4, 8, 24 hr post dose. 8 time points. Semi-serial bleeding for plasma only. The animals were restrained manually at the designated time points. Approx. 110 μL of blood/time point was taken from the animals via facial vein into tubes with K2EDTA. Blood sample was centrifuged at 4° C. (2000 g, 5 min) to obtain plasma within 15 m after sample collection. Put on wet ice, then plasma samples were stored at approximately −70° C. until analysis.
For oral gavage, compound was dosed as a suspension in […] carboxymethyl cellulose (CMC), 0.2% Tween 80 in water. Compound was orally dosed at 50 mg/Kg, at 100 mg/Kg.
For IV dosing, compound was dissolved into a solution of […], […] HS 15 and 90% Saline. Compound was IV dosed at 5 mg/Kg.
Plasma samples were analyzed for I-11 using LC-MS using a calibration curve of known concentrations.
FIG. 1 describes the mean plasma concentration-time profiles of I-11 after single IV dose of 5 mg/kg, PO dose of 50 mg/kg and 100 mg/kg in female Balb/c mice (N=3/time point). • Note: • 1. […] The IV dosing solutions were prepared in 5% DMSO+5% Solutol HS15+90% Saline. The PO dosing solutions were prepared in 1% CMC-Na+0.2% Tween 80 in water. • 3. BQL=Below quantifiable limit of 3.00 ng/mL for I-11 in female Balb/c mouse plasma samples. • 4. PK parameters were estimated by non-compartmental model using WinNonlin 8.2. If the adjusted rsq (linear regression coefficient of the concentration value on the terminal phase) is less than 0.9, T1/2 might not be accurately estimated. • 5. F value was determined by the following equation: • If AUClast/AUCINF>80%:
F=(AUCINF-EX×DOSEIV)/(AUCINF-IV×DOSEEX)[…] • If AUClast/AUCINF<80% or AUCINF not available:
F=([…])/(AUClast-IV×DOSEEX)[…] • 6. NA: Not available.

[1] = IV 5 mg/kg, 24 hr, BQL = below quantifiable limit of 3.00 ng/mL

## CC(C)Cc1sc(Nc2ncc(-c3cccs3)cc2C(=O)O)nc1C(C)(C)C [Compound I-11]
IV 5 mg/kg, 0.083 hr, 5 mg/kg
  Plasma concentration Individual: 9.81 µg/mL and 12.3 µg/mL
IV 5 mg/kg, 0.25 hr, 5 mg/kg
  Plasma concentration Individual: 5.2 µg/mL and 5.42 µg/mL
IV 5 mg/kg, 0.5 hr, 5 mg/kg
  Plasma concentration Individual: 2.92 µg/mL and 1.73 µg/mL
IV 5 mg/kg, 1 hr, 5 mg/kg
  Plasma concentration Individual: 0.865 µg/mL and 1.18 µg/mL and 1.81 µg/mL
IV 5 mg/kg, 2 hr, 5 mg/kg
  Plasma concentration Individual: 0.142 µg/mL
IV 5 mg/kg, 4 hr, 5 mg/kg
  Plasma concentration Individual: 0.0485 µg/mL and 0.0298 µg/mL
IV 5 mg/kg, 8 hr, 5 mg/kg
  Plasma concentration Individual: 0.0261 µg/mL and 0.0159 µg/mL
[1]
  Plasma concentration Individual: BQL
  Plasma concentration Mean: BQL
IV 5 mg/kg, PO 50 and 100 mg/kg single dose
  abnormal clinical symptoms during in-life study: No abnormal clinical symptoms were observed
PO 50 mg/kg vs IV 5 mg/kg
  F: 50.9%
PO 50 mg/kg, 0.083 hr, 50 mg/kg
  Plasma concentration Individual: 0.288 µg/mL and 0.22 µg/mL
PO 50 mg/kg, 0.25 hr, 50 mg/kg
  Plasma concentration Individual: 1.88 µg/mL and 2.38 µg/mL and 1.03 µg/mL
PO 50 mg/kg, 0.5 hr, 50 mg/kg
  Plasma concentration Individual: 6.75 µg/mL and 6.98 µg/mL
PO 50 mg/kg, 1 hr, 50 mg/kg
  Plasma concentration Individual: 5.94 µg/mL and 6.67 µg/mL
PO 50 mg/kg, 2 hr, 50 mg/kg
  Plasma concentration Individual: 7.77 µg/mL and 3.89 µg/mL
PO 50 mg/kg, 4 hr, 50 mg/kg
  Plasma concentration Individual: 1.75 µg/mL and 2.28 µg/mL
PO 50 mg/kg, 8 hr, 50 mg/kg
  Plasma concentration Individual: 0.249 µg/mL and 0.325 µg/mL
PO 50 mg/kg, 24 hr, 50 mg/kg
  Plasma concentration Individual: 0.00385 µg/mL and 0.064 µg/mL and 0.182 µg/mL
PO 100 mg/kg vs IV 5 mg/kg
  F: 60.0%
PO 100 mg/kg, 0.083 hr, 100 mg/kg
  Plasma concentration Individual: 0.318 µg/mL and 0.232 µg/mL
PO 100 mg/kg, 0.25 hr, 100 mg/kg
  Plasma concentration Individual: 2.99 µg/mL and 2.7 µg/mL
PO 100 mg/kg, 0.5 hr, 100 mg/kg
  Plasma concentration Individual: 4.89 µg/mL and 6.67 µg/mL and 11.9 µg/mL
PO 100 mg/kg, 1 hr, 100 mg/kg
  Plasma concentration Individual: 6.71 µg/mL and 7.03 µg/mL
PO 100 mg/kg, 2 hr, 100 mg/kg
  Plasma concentration Individual: 14.1 µg/mL and 12.3 µg/mL
PO 100 mg/kg, 4 hr, 100 mg/kg
  Plasma concentration Individual: 4.84 µg/mL and 6.93 µg/mL and 12.8 µg/mL
PO 100 mg/kg, 8 hr, 100 mg/kg
  Plasma concentration Individual: 0.444 µg/mL and 0.503 µg/mL and 0.953 µg/mL
PO 100 mg/kg, 24 hr, 100 mg/kg
  Plasma concentration Individual: 0.0406 µg/mL and 0.0575 µg/mL and 0.0842 µg/mL
female, BALB/c, mouse, plasma, iv, 5 mg/kg, IV 5 mg/kg
  clearance: 0.946 L/h/kg
female, BALB/c, mouse, plasma, iv, 5 mg/kg, IV 5 mg/kg, 0.083 hr, read-out: Plasma concentration Individual
  concentration at 0.083 hr: 7.98 µg/mL
female, BALB/c, mouse, plasma, iv, 5 mg/kg, IV 5 mg/kg, 0.083 hr, read-out: Plasma concentration Mean
  concentration at 0.083 hr: 10 µg/mL
female, BALB/c, mouse, plasma, iv, 5 mg/kg, IV 5 mg/kg, 0.25 hr, read-out: Plasma concentration Individual
  concentration at 0.25 hr: 5.6 µg/mL
female, BALB/c, mouse, plasma, iv, 5 mg/kg, IV 5 mg/kg, 0.25 hr, read-out: Plasma concentration Mean
  concentration at 0.25 hr: 5.41 µg/mL
female, BALB/c, mouse, plasma, iv, 5 mg/kg, IV 5 mg/kg, 0.5 hr, read-out: Plasma concentration Individual
  concentration at 0.5 hr: 2.71 µg/mL
female, BALB/c, mouse, plasma, iv, 5 mg/kg, IV 5 mg/kg, 0.5 hr, read-out: Plasma concentration Mean
  concentration at 0.5 hr: 2.45 µg/mL
female, BALB/c, mouse, plasma, iv, 5 mg/kg, IV 5 mg/kg, 1 hr, read-out: Plasma concentration Mean
  concentration at 1 hr: 1.28 µg/mL
female, BALB/c, mouse, plasma, iv, 5 mg/kg, IV 5 mg/kg, 2 hr, read-out: Plasma concentration Individual
  concentration at 2 hr: 0.135 µg/mL
female, BALB/c, mouse, plasma, iv, 5 mg/kg, IV 5 mg/kg, 2 hr, read-out: Plasma concentration Mean
  concentration at 2 hr: 0.14 µg/mL
female, BALB/c, mouse, plasma, iv, 5 mg/kg, IV 5 mg/kg, 4 hr, read-out: Plasma concentration Individual
  concentration at 4 hr: 0.0583 µg/mL
female, BALB/c, mouse, plasma, iv, 5 mg/kg, IV 5 mg/kg, 4 hr, read-out: Plasma concentration Mean
  concentration at 4 hr: 0.0455 µg/mL
female, BALB/c, mouse, plasma, iv, 5 mg/kg, IV 5 mg/kg, 8 hr, read-out: Plasma concentration Individual
  concentration at 8 hr: 0.019 µg/mL
female, BALB/c, mouse, plasma, iv, 5 mg/kg, IV 5 mg/kg, 8 hr, read-out: Plasma concentration Mean
  concentration at 8 hr: 0.0203 µg/mL
female, BALB/c, mouse, plasma, po, 50 mg/kg, PO 50 mg/kg, 0.083 hr, read-out: Plasma concentration Individual
  concentration at 0.083 hr: 0.263 µg/mL
female, BALB/c, mouse, plasma, po, 50 mg/kg, PO 50 mg/kg, 0.083 hr, read-out: Plasma concentration Mean
  concentration at 0.083 hr: 0.257 µg/mL
female, BALB/c, mouse, plasma, po, 50 mg/kg, PO 50 mg/kg, 0.25 hr, read-out: Plasma concentration Mean
  concentration at 0.25 hr: 1.76 µg/mL
female, BALB/c, mouse, plasma, po, 50 mg/kg, PO 50 mg/kg, 0.5 hr, read-out: Plasma concentration Individual
  concentration at 0.5 hr: 3.83 µg/mL
female, BALB/c, mouse, plasma, po, 50 mg/kg, PO 50 mg/kg, 0.5 hr, read-out: Plasma concentration Mean
  concentration at 0.5 hr: 5.85 µg/mL
female, BALB/c, mouse, plasma, po, 50 mg/kg, PO 50 mg/kg, 1 hr, read-out: Plasma concentration Individual
  concentration at 1 hr: 8.76 µg/mL
female, BALB/c, mouse, plasma, po, 50 mg/kg, PO 50 mg/kg, 1 hr, read-out: Plasma concentration Mean
  concentration at 1 hr: 7.12 µg/mL
female, BALB/c, mouse, plasma, po, 50 mg/kg, PO 50 mg/kg, 2 hr, read-out: Plasma concentration Individual
  concentration at 2 hr: 7.26 µg/mL
female, BALB/c, mouse, plasma, po, 50 mg/kg, PO 50 mg/kg, 2 hr, read-out: Plasma concentration Mean
  concentration at 2 hr: 6.31 µg/mL
female, BALB/c, mouse, plasma, po, 50 mg/kg, PO 50 mg/kg, 4 hr, read-out: Plasma concentration Individual
  concentration at 4 hr: 1.17 µg/mL
female, BALB/c, mouse, plasma, po, 50 mg/kg, PO 50 mg/kg, 4 hr, read-out: Plasma concentration Mean
  concentration at 4 hr: 1.73 µg/mL
female, BALB/c, mouse, plasma, po, 50 mg/kg, PO 50 mg/kg, 8 hr, read-out: Plasma concentration Individual
  concentration at 8 hr: 0.367 µg/mL
female, BALB/c, mouse, plasma, po, 50 mg/kg, PO 50 mg/kg, 8 hr, read-out: Plasma concentration Mean
  concentration at 8 hr: 0.314 µg/mL
female, BALB/c, mouse, plasma, po, 50 mg/kg, PO 50 mg/kg, 24 hr
  concentration at 24 hr: 0.0833 µg/mL
female, BALB/c, mouse, plasma, po, 100 mg/kg, PO 100 mg/kg, 0.083 hr, read-out: Plasma concentration Individual
  concentration at 0.083 hr: 0.188 µg/mL
female, BALB/c, mouse, plasma, po, 100 mg/kg, PO 100 mg/kg, 0.083 hr, read-out: Plasma concentration Mean
  concentration at 0.083 hr: 0.246 µg/mL
female, BALB/c, mouse, plasma, po, 100 mg/kg, PO 100 mg/kg, 0.25 hr, read-out: Plasma concentration Individual
  concentration at 0.25 hr: 2.69 µg/mL
female, BALB/c, mouse, plasma, po, 100 mg/kg, PO 100 mg/kg, 0.25 hr, read-out: Plasma concentration Mean
  concentration at 0.25 hr: 2.79 µg/mL
female, BALB/c, mouse, plasma, po, 100 mg/kg, PO 100 mg/kg, 0.5 hr, read-out: Plasma concentration Mean
  concentration at 0.5 hr: 7.82 µg/mL
female, BALB/c, mouse, plasma, po, 100 mg/kg, PO 100 mg/kg, 1 hr, read-out: Plasma concentration Individual
  concentration at 1 hr: 8.84 µg/mL
female, BALB/c, mouse, plasma, po, 100 mg/kg, PO 100 mg/kg, 1 hr, read-out: Plasma concentration Mean
  concentration at 1 hr: 7.53 µg/mL
female, BALB/c, mouse, plasma, po, 100 mg/kg, PO 100 mg/kg, 2 hr, read-out: Plasma concentration Individual
  concentration at 2 hr: 18.6 µg/mL
female, BALB/c, mouse, plasma, po, 100 mg/kg, PO 100 mg/kg, 2 hr, read-out: Plasma concentration Mean
  concentration at 2 hr: 15 µg/mL
female, BALB/c, mouse, plasma, po, 100 mg/kg, PO 100 mg/kg, 4 hr, read-out: Plasma concentration Mean
  concentration at 4 hr: 8.19 µg/mL
female, BALB/c, mouse, plasma, po, 100 mg/kg, PO 100 mg/kg, 8 hr, read-out: Plasma concentration Mean
  concentration at 8 hr: 0.633 µg/mL
female, BALB/c, mouse, plasma, po, 100 mg/kg, PO 100 mg/kg, 24 hr
  concentration at 24 hr: 0.0608 µg/mL
mouse, plasma, IV 5 mg/kg
  AUC(0-inf): 5.28 µg·h/mL
  AUC(0-t): 5.22 µg·h/mL
  C0: 13.6 µg/mL
  MRT inf: 0.73 h
  MRT last: 0.594 h
  half-life: 2.28 h
mouse, plasma, IV 5 mg/kg, read-out: Vss
  Vd: 0.69 L/kg
mouse, plasma, PO 50 mg/kg
  AUC(0-inf): 26.9 µg·h/mL
  AUC(0-t): 26.4 µg·h/mL
  Cmax: 7.12 µg/mL
  MRT inf: 3.79 h
  MRT last: 3.31 h
  Tmax: 1 h
  half-life: 4.05 h
mouse, plasma, PO 100 mg/kg
  AUC(0-inf): 63.4 µg·h/mL
  AUC(0-t): 63.1 µg·h/mL
  Cmax: 15 µg/mL
  MRT inf: 3.49 h
  MRT last: 3.37 h
  Tmax: 2 h
  half-life: 3.19 h

From patent publication US20240208961A1, “EIF4E INHIBITORS AND USES THEREOF” (PIC Therapeutics, Inc., priority 2022, published 2024)
